Columns and labels:
[1] = xn = mol fraction of the nth substance listed; details: transient hot wire
[2] = transient hot wire

CC(F)(F)F [1,1,1-trifluoroethane] + C=C(F)C(F)(F)F
[1], x1 = 0.5
Details	thermal conductivity [W/m/K]
265.44 K, 1220 kPa, Liquid	0.0777
284.11 K, 2050 kPa, Liquid	0.0715
285.09 K, 1060 kPa, Liquid	0.0696
307.25 K, 2030 kPa, Liquid	0.0625
307.34 K, 3050 kPa, Liquid	0.0644
324.39 K, 3040 kPa, Liquid	0.0585
334.34 K, 1080 kPa, Gas	0.01836
354.13 K, 1170 kPa, Gas	0.02059
354.52 K, 1730 kPa, Gas	0.02034
373.86 K, 2750 kPa, Gas	0.02379
374.86 K, 1900 kPa, Gas	0.02277
393.8 K, 3090 kPa, Gas	0.02622

[Ar] [argon]
[2], Gas
Details	thermal conductivity [W/m/K]
311.92 K, 20370 kPa	0.02811
312.12 K, 24160 kPa	0.03024
312.12 K, 31080 kPa	0.0342
312.18 K, 27390 kPa	0.03235
312.2 K, 25850 kPa	0.03134
312.35 K, 27380 kPa	0.0324
312.59 K, 17170 kPa	0.02649
312.61 K, 13790 kPa	0.02465
312.73 K, 10320 kPa	0.02285

FC(F)C(F)(F)F [pentafluoroethane] + C=C(F)C(F)(F)F
[1], x1 = 0.5
Details	thermal conductivity [W/m/K]
259.84 K, 1110 kPa, Liquid	0.0717
284.9 K, 1150 kPa, Liquid	0.0674
285.15 K, 1880 kPa, Liquid	0.0686
304.07 K, 2060 kPa, Liquid	0.0644
305.21 K, 3030 kPa, Liquid	0.0595
324.75 K, 3030 kPa, Liquid	0.0529
334.55 K, 1340 kPa, Gas	0.01759
354.3 K, 1450 kPa, Gas	0.01925
354.63 K, 1840 kPa, Gas	0.02057
374.24 K, 2810 kPa, Gas	0.02329
374.46 K, 2040 kPa, Gas	0.02202
394.23 K, 3100 kPa, Gas	0.02512

FC(F)C(F)(F)F [pentafluoroethane] + CC(F)F
[1], x1 = 0.5
Details	thermal conductivity [W/m/K]
264.9 K, 1000 kPa, Liquid	0.0845
273.97 K, 2140 kPa, Liquid	0.0856
284.7 K, 1000 kPa, Liquid	0.0799
294.68 K, 3030 kPa, Liquid	0.0789
294.83 K, 2010 kPa, Liquid	0.0774
314.1 K, 3080 kPa, Liquid	0.0646
335.9 K, 1110 kPa, Gas	0.0178
353.81 K, 1710 kPa, Gas	0.01953
353.92 K, 1220 kPa, Gas	0.01934
374.25 K, 1920 kPa, Gas	0.0231
374.33 K, 2760 kPa, Gas	0.0237
393.94 K, 3110 kPa, Gas	0.02557

Cc1ccccc1 [toluene]
[2], 100 kPa, Liquid
Details	thermal conductivity [W/m/K]
272.64 K	0.1372
273.45 K	0.1366
295.01 K	0.1308
295.07 K	0.1307
316.82 K	0.1253
318.84 K	0.1243
321.21 K	0.1237
335.27 K	0.12
337.36 K	0.1192
347 K	0.1175

F/C=C/C(F)(F)F [trans-1,3,3,3-tetrafluoropropene] + C=C(F)C(F)(F)F
[1], x1 = 0.5
Details	thermal conductivity [W/m/K]
274.82 K, 1240 kPa, Liquid	0.0766
294.69 K, 1080 kPa, Liquid	0.0689
303.67 K, 2050 kPa, Liquid	0.0679
303.96 K, 2960 kPa, Liquid	0.0715
323.14 K, 2920 kPa, Liquid	0.0633
324.62 K, 2070 kPa, Liquid	0.0622
355.01 K, 940 kPa, Gas	0.01929
375.04 K, 1740 kPa, Gas	0.02197
375.09 K, 1010 kPa, Gas	0.02168
393.98 K, 1860 kPa, Gas	0.02321
394.38 K, 2520 kPa, Gas	0.0246
414.22 K, 2920 kPa, Gas	0.02633

F/C=C/C(F)(F)F [trans-1,3,3,3-tetrafluoropropene] + CC(F)(F)F
[1], x2 = 0.5
Details	thermal conductivity [W/m/K]
264.94 K, 910 kPa, Liquid	0.0772
285.99 K, 2120 kPa, Liquid	0.0752
286.02 K, 1020 kPa, Liquid	0.0742
304.35 K, 2020 kPa, Liquid	0.069
304.36 K, 3040 kPa, Liquid	0.0685
324.01 K, 2890 kPa, Liquid	0.0624
345.02 K, 950 kPa, Gas	0.01913
364.82 K, 1040 kPa, Gas	0.02103
364.82 K, 1730 kPa, Gas	0.02117
384.54 K, 1920 kPa, Gas	0.02317
384.6 K, 2540 kPa, Gas	0.02357
404.05 K, 2960 kPa, Gas	0.02606

F/C=C/C(F)(F)F [trans-1,3,3,3-tetrafluoropropene] + FC(F)C(F)(F)F
[1], x2 = 0.5
Details	thermal conductivity [W/m/K]
262.72 K, 1000 kPa, Liquid	0.0781
285.7 K, 1080 kPa, Liquid	0.0737
285.77 K, 2060 kPa, Liquid	0.0738
304.23 K, 1940 kPa, Liquid	0.0636
304.8 K, 3080 kPa, Liquid	0.0688
324.33 K, 3020 kPa, Liquid	0.0618
333.94 K, 1120 kPa, Gas	0.01783
353.67 K, 1810 kPa, Gas	0.01927
353.84 K, 1230 kPa, Gas	0.01927
373.56 K, 2020 kPa, Gas	0.02145
373.67 K, 3040 kPa, Gas	0.02479
395.41 K, 3040 kPa, Gas	0.02441

F/C=C/C(F)(F)F [trans-1,3,3,3-tetrafluoropropene] + FCC(F)(F)F
[1], x2 = 0.5
Details	thermal conductivity [W/m/K]
274.68 K, 980 kPa, Liquid	0.0884
305.14 K, 3140 kPa, Liquid	0.0754
305.18 K, 1040 kPa, Liquid	0.0739
305.22 K, 2040 kPa, Liquid	0.0736
324.82 K, 2960 kPa, Liquid	0.0627
326.02 K, 2030 kPa, Liquid	0.0621
344.05 K, 870 kPa, Gas	0.01922
364.05 K, 990 kPa, Gas	0.02123
364.13 K, 2030 kPa, Gas	0.02192
383.85 K, 2230 kPa, Gas	0.02365
384.09 K, 3030 kPa, Gas	0.02611
403.87 K, 3020 kPa, Gas	0.02684

O [water]
[2], 100 kPa, Liquid
Details	thermal conductivity [W/m/K]
292.8 K	0.6012
295.01 K	0.605
303.13 K	0.6184
303.93 K	0.6193
305.47 K	0.622
314.01 K	0.6259
314.95 K	0.6275
334.75 K	0.6479
336.26 K	0.6496

Reference: the NIST ThermoML archive (doi:10.1016/j.jct.2019.01.028)
